What all share (assay): ≥ marks a high value that may be exact or a test limit, other limits are often not marked, values filed in µg/mL are converted to µM
Assay [1] relates to Klebsiella pneumoniae E406-17.
For assay [2], the system named is Pseudomonas aeruginosa E411-17.
In assay [3] the test system is Staphylococcus aureus M838-17.
For assay [4], the system named is Pyricularia oryzae MAFF 101511.
The test system of assay [5] is Xanthomonas oryzae pv. oryzae MAFF 311018.
Assay [6] relates to Clavibacter michiganensis subsp. michiganensis MAFF 301254.
Assay [7] concerns Candida albicans NCYC 1467.
Assay [8] deals with Klebsiella pneumoniae ATCC 43816.
Assay [9] concerns Pseudomonas aeruginosa ATCC 27853.
Assay [10] concerns Escherichia coli NCTC 10418.
The test system of assay [11] is Staphylococcus aureus NCTC 12493.
The test system of assay [12] is Enterococcus faecalis NCTC 12697.
The subject of assay [13] is Staphylococcus aureus NCTC 10788.
Assay [14] deals with Escherichia coli ATCC 11229.
For assay [15], the system named is Salmonella enterica serovar Typhimurium.
The subject of assay [16] is Staphylococcus aureus ATCC 25923.
For assay [17], the system named is Staphylococcus aureus ATCC 29213.
Assay [18] deals with Escherichia coli ATCC 35218.
Assay [19] concerns Staphylococcus aureus ATCC 33591.
The subject of assay [20] is Klebsiella pneumoniae ATCC 13866.
For assay [21], the system named is Staphylococcus epidermidis ATCC 12228.
In assay [22] the test system is Acinetobacter baumannii BCRC 14B0100.
For assay [23], the system named is Trichophyton mentagrophytes PMC 6528.
The test system of assay [24] is Aspergillus brasiliensis DSM 1988.
For a further assay, the system named is Candida krusei PMC 0624.
The test system of assay [25] is Candida parapsilosis PMC 0711.
The test system of assay [26] is Candida parapsilosis DSM 11224.
Assay [27] relates to Corynebacterium jeikeium ATCC BAA-949.
For assay [28], the system named is Candida glabrata PMC 0805.
Assay [29] has as its system Cryptococcus neoformans DSM 11759.
Assay [30] concerns Candida albicans ATCC 24433.
In assay [31] the test system is Candida tropicalis DSM 11953.
For assay [32], the system named is Trichophyton mentagrophytes PMC 6530.
For assay [33], the system named is Trichophyton mentagrophytes DSM 4870.
Assay [34] concerns Trichophyton mentagrophytes PMC 6529.
In another assay the test system is Candida krusei PMC 0610.
Assay [35] relates to Candida albicans ATCC 10231.
Assay [36] has as its system Aspergillus niger PMC 7101.
The subject of assay [37] is Aspergillus terreus PMC 7201.
In assay [38] the test system is Microsporum canis DSM 10708.

This note sets out measurements from DBAASP.

The MIC is the lowest concentration that inhibits growth of the organism. A low value points to greater potency.

Converted amounts (≈) assume the structure as drawn. “And” between values parts separate entries of the source, which are not always exact repeats. Equal entries are not always repeated.

As to `C[C@H](NC(=O)[C@H](Cc1c[nH]c2ccccc12)NC(=O)[C@H](Cc1c[nH]c2ccccc12)NC(=O)[C@H](Cc1c[nH]c2ccccc12)NC(=O)[C@H](Cc1c[nH]c2ccccc12)NC(=O)[C@H](CCCN=C(N)N)NC(=O)[C@H](CCCN=C(N)N)NC(=O)[C@@H](N)CCCN=C(N)N)C(N)=O` [RRRWWWWA], the MIC is at least 50 µM in assay [1], 25 µM (≈ 32.5 µg/mL) in assay [2] and 12.5 µM (≈ 16.3 µg/mL) in [3].

`CC[C@H](C)[C@H](NC(=O)[C@@H](N)Cc1ccccc1)C(=O)N[C@@H](Cc1ccccc1)C(=O)N[C@@H](CC(C)C)C(=O)N1CCC[C@H]1C(=O)N[C@H](C(=O)N[C@@H](Cc1ccccc1)C(=O)N[C@@H](CCCN=C(N)N)C(=O)N[C@@H](CCCN=C(N)N)C(=O)N1CCC[C@H]1C(=O)N[C@H](C(=O)N[C@@H](CO)C(N)=O)C(C)C)[C@@H](C)CC` [FIFLPIFRRPVS]: the MIC was at least 85.8 µM in assay [4], at least 85.8 µM in assay [5] and 10.7 µM (≈ 16 µg/mL) in [6].

As for `CC[C@H](C)[C@@H]1NC(=O)[C@H](C)NC(=O)[C@@H](NC(=O)[C@H](Cc2ccccc2)NC(=O)[C@@H](NC(=O)[C@H](CCCCN)NC(=O)[C@H](Cc2c[nH]c3ccccc23)NC(=O)[C@@H]2CCCN2C(=O)[C@H](Cc2c[nH]c3ccccc23)NC(=O)[C@H](Cc2ccccc2)NC(=O)[C@@H](N)CCCCN)[C@@H](C)CC)CSSC[C@@H](C(=O)O)NC(=O)[C@H](CCCCN)NC(=O)[C@H](CCCCN)NC(=O)[C@H]([C@@H](C)O)NC1=O` [KFWPWKIFCAITKKC], the MIC in [7] was 8 µM (≈ 15.2 µg/mL); in assay [8] it was at least 32 µM; in [9] it was 64 µM (≈ 121 µg/mL); in [10], 16 µM (≈ 30.4 µg/mL); in assay [11] it was 8 µM (≈ 15.2 µg/mL); in assay [12] it was at least 256 µM. The same compound had an MIC in [13] of 8 µM (≈ 15.2 µg/mL).

In the case of `CC[C@H](C)[C@H](NC(=O)[C@H](C)NC(=O)[C@H](CCCN=C(N)N)NC(=O)[C@H](CC(C)C)NC(=O)[C@@H](NC(=O)[C@H](CO)NC(=O)CN)C(C)C)C(=O)N[C@@H](CCSC)C(=O)N[C@@H](CCCN=C(N)N)C(=O)N[C@@H](CCSC)C(=O)N[C@@H](Cc1ccccc1)C(=O)N[C@@H](C)C(=O)N[C@@H](CCCCN)C(=O)N[C@@H](CC(C)C)C(=O)N[C@@H](CCSC)C(=O)NCC(=O)O` [GSVLRAIMRMFAKLMG], the MIC in [14] is at least 35.9 µM; in assay [9] it was 18 µM (≈ 32 µg/mL); in assay [15], at least 35.9 µM; in assay [16], 35.9 µM (≈ 64 µg/mL); in assay [17], 35.9 µM (≈ 64 µg/mL); in assay [18], at least 35.9 µM. Moreover, the MIC in assay [19] was 4.49 µM (≈ 8 µg/mL); in assay [20], at least 35.9 µM; in assay [21], 4.49 µM (≈ 8 µg/mL).

As to `CC[C@H](C)[C@H](NC(=O)[C@H](CCCN=C(N)N)NC(=O)[C@H](CCC(N)=O)NC(=O)[C@@H](NC(=O)[C@@H](NC(=O)[C@H](CCCN=C(N)N)NC(=O)[C@H](CCCCN)NC(C)=O)[C@@H](C)CC)C(C)C)C(=O)N[C@@H](CCCCN)C(=O)N[C@@H](CC(=O)O)C(=O)N[C@@H](Cc1ccccc1)C(=O)N[C@@H](CC(C)C)C(=O)N[C@@H](CCCN=C(N)N)C(=O)N[C@@H](C)C(=O)NCC(=O)N1CCC[C@H]1C(=O)N[C@H](C(=O)N[C@@H](CCCCN)C(=O)N[C@@H](CC(=O)O)C(=O)N[C@@H](Cc1ccccc1)C(=O)N[C@@H](CC(C)C)C(=O)N[C@@H](CCCN=C(N)N)C(N)=O)[C@@H](C)CC` [KRIVQRIKDFLRAGPIKDFLR], in assay [22], the MIC was 0.778 µM and 0.389 µM.

Turning to `CC[C@H](C)[C@H](NC(=O)CNC(=O)[C@H](CC(N)=O)NC(=O)[C@H](CC(C)C)NC(=O)[C@@H](NC(=O)[C@H](CCCN=C(N)N)NC(=O)CNC(=O)[C@@H](NC(=O)[C@@H](NC(=O)[C@@H]1CCCN1C(=O)[C@H](Cc1ccccc1)NC(=O)[C@@H](N)Cc1ccccc1)C(C)C)[C@@H](C)CC)[C@@H](C)CC)C(=O)N[C@@H](CC(C)C)C(N)=O` [FFPVIGRILNGIL], the MIC is at least 32 µM in assay [23]; at least 128 µM in assay [24]; at least 32 µM in the assay with Candida krusei PMC 0624; at least 128 µM in assay [25]; at least 128 µM in assay [26]; 16 µM (≈ 23.3 µg/mL) in [27]. Also, the MIC in assay [28] was at least 64 µM; in assay [29], at least 32 µM; in assay [30], at least 32 µM; in assay [31], 16 µM (≈ 23.3 µg/mL); in assay [32], at least 64 µM; in assay [33], 16 µM (≈ 23.3 µg/mL). Further, the minimum inhibitory concentration (MIC) in assay [34] is at least 32 µM; in the assay with Candida krusei PMC 0610, at least 128 µM; in assay [35], 16 µM and 21.3 µM; in assay [36], at least 128 µM; in assay [37] it was at least 128 µM; in assay [38], at least 64 µM.
